Laboratory results published in ChEMBL document CHEMBL1131278, “Synthesis and in vitro cancer cell growth inhibitory activity of monocyclic model compounds containing spongistatin triene side-chains” (Bioorg Med Chem Lett, 1998).
In brackets after ≈: the same amount, converted by molar mass.

Experiments:
Assay type in all cases: functional
SK-N-SH = experiment: In vitro growth inhibitory activity against cancer cell line Neuroblast SK-N-SH; conditions: Homo sapiens
FaDu = experiment: In vitro growth inhibitory activity against cancer cell line Pharynx-sq FADU; conditions: Homo sapiens
DU-145 = experiment: In vitro growth inhibitory activity against cancer cell line Prostate DU-145; conditions: Homo sapiens
NCI-H460 = experiment: In vitro growth inhibitory activity against cancer cell line Lung-NSC NCI-H460; conditions: Homo sapiens
BXPC-3 = experiment: In vitro growth inhibitory activity against cancer cell line Pancreas-a BXPC-3; conditions: Homo sapiens
SW-1736 = experiment: In vitro growth inhibitory activity against cancer cell line Thyroid ca SW 1736; conditions: Homo sapiens
Tubulin alpha chain = Tubulin alpha chain (Sus scrofa, UniProt P02550); experiment: Compound was tested for its ability to inhibit the glutamate induced polymerization of tubulin
Chain of Tubulin alpha chain (P02550 whole entry, looked up): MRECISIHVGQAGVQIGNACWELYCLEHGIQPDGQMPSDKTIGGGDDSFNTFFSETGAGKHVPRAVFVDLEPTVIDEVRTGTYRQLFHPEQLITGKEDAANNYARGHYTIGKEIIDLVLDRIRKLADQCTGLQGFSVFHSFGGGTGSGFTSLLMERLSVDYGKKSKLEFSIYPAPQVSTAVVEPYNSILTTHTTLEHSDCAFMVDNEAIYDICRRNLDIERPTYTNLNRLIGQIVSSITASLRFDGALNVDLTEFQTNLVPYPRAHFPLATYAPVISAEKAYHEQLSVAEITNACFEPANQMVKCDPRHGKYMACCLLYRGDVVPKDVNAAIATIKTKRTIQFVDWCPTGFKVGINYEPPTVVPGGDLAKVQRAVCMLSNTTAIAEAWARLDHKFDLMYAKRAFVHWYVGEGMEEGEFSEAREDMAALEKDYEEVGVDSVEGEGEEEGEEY

GI50 (SK-N-SH) [µg/mL] | GI50 (DU-145) [µg/mL] | GI50 (NCI-H460) [µg/mL] | GI50 (BXPC-3) [µg/mL] | GI50 (SW-1736) [µg/mL] | Compound | GI50 (FaDu) [µg/mL] | IC50 (Tubulin alpha chain) [µM]
0.31 (≈ 0.543 µM) | 0.32 (≈ 0.561 µM) | 0.26 (≈ 0.456 µM) | 0.25 (≈ 0.438 µM) | 0.7 (≈ 1.23 µM) | C=C/C=C/[C@@H](O)CC(=C)C[C@H]1O[C@H](OC)[C@H](OCc2ccccc2)[C@@H](OCc2ccccc2)[C@@H]1OCc1ccccc1 | 0.27 (≈ 0.473 µM) | –
2.2 (≈ 3.64 µM) | > 10 | 6.6 (≈ 10.9 µM) | 3.2 (≈ 5.29 µM) | 5.8 (≈ 9.58 µM) | C=C(Cl)/C=C/[C@@H](O)CC(=C)C[C@H]1O[C@H](OC)[C@H](OCc2ccccc2)[C@@H](OCc2ccccc2)[C@@H]1OCc1ccccc1 | 5 (≈ 8.26 µM) | –
– | – | – | – | – | C=C(Cl)/C=C/[C@@H](O)C(C)C(=C)C[C@H]1O[C@@H]2[C@H](C)[C@@H](OC(=O)C[C@H]3C[C@H](OC(C)=O)C[C@@]4(C[C@@](C)(O)C[C@H](CC(=C)[C@@H](C)[C@H](OC(C)=O)[C@H](C)C(=O)C[C@@H]5C[C@H](OC)C[C@@]6(C[C@@H](O)C[C@H](/C=C\CCC[C@H]7O[C@](O)(C[C@H](O)[C@H]7C)[C@H]2O)C6)O5)O4)O3)[C@@H]1O (stereo partly drawn) [Spongistatin-1] | – | 3.6
